Laboratory results taken from PMC6934184, “Selective DNA-PKcs inhibition extends the therapeutic index of localized radiotherapy and chemotherapy” (The Journal of Clinical Investigation, 2019).

Molecular target: T1, CAMK1 (CaMK1) (Homo sapiens, UniProt Q14012)
T1 construct: purchased Thermo Fisher Scientific (Life Technologies) SelectScreen
Test: SelectScreen Adapta
Type: biochemical
Conditions: ATP 10 µM
Procedure, shortened: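 SelectScreen broad panel; activity (Z'LYTE, Adapta) plus binding formats. ATP: Km app for CSF1R Z'LYTE; 10 for CAMK1 Adapta. Readout = % per kinase.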

T1 sequence (Q14012 whole entry): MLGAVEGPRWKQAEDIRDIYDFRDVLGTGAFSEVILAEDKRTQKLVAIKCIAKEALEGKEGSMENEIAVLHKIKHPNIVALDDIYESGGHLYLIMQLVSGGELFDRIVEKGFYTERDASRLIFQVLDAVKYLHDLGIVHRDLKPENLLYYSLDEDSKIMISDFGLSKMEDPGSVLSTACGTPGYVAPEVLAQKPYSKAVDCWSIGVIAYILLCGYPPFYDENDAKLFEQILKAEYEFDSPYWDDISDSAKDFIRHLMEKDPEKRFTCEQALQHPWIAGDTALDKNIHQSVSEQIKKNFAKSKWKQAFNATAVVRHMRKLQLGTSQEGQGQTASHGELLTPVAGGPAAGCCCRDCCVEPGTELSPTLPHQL

CN(C(=O)CN1CCOCC1)c1ccc2sc3c(-c4cccc5c(=O)cc(N6CC7CCC(C6)O7)oc45)cccc3c2c1 [NU5455]
inhibition at 1 µM: 0.8%
